Measurements reported in ChEMBL document CHEMBL1134351, “Synthesis of new cyclitol compounds that influence the activity of phosphatidylinositol 4-kinase isoform, PI4K230” (J Med Chem, 2001).

biological target: Phosphatidylinositol 4-kinase alpha (Bos taurus) (UniProt O02811); assay: Inactivation of the enzyme PI4K230 from bovine brain membranes; set-up: concentration or dose not given beside the values
Sequence (O02811 whole entry): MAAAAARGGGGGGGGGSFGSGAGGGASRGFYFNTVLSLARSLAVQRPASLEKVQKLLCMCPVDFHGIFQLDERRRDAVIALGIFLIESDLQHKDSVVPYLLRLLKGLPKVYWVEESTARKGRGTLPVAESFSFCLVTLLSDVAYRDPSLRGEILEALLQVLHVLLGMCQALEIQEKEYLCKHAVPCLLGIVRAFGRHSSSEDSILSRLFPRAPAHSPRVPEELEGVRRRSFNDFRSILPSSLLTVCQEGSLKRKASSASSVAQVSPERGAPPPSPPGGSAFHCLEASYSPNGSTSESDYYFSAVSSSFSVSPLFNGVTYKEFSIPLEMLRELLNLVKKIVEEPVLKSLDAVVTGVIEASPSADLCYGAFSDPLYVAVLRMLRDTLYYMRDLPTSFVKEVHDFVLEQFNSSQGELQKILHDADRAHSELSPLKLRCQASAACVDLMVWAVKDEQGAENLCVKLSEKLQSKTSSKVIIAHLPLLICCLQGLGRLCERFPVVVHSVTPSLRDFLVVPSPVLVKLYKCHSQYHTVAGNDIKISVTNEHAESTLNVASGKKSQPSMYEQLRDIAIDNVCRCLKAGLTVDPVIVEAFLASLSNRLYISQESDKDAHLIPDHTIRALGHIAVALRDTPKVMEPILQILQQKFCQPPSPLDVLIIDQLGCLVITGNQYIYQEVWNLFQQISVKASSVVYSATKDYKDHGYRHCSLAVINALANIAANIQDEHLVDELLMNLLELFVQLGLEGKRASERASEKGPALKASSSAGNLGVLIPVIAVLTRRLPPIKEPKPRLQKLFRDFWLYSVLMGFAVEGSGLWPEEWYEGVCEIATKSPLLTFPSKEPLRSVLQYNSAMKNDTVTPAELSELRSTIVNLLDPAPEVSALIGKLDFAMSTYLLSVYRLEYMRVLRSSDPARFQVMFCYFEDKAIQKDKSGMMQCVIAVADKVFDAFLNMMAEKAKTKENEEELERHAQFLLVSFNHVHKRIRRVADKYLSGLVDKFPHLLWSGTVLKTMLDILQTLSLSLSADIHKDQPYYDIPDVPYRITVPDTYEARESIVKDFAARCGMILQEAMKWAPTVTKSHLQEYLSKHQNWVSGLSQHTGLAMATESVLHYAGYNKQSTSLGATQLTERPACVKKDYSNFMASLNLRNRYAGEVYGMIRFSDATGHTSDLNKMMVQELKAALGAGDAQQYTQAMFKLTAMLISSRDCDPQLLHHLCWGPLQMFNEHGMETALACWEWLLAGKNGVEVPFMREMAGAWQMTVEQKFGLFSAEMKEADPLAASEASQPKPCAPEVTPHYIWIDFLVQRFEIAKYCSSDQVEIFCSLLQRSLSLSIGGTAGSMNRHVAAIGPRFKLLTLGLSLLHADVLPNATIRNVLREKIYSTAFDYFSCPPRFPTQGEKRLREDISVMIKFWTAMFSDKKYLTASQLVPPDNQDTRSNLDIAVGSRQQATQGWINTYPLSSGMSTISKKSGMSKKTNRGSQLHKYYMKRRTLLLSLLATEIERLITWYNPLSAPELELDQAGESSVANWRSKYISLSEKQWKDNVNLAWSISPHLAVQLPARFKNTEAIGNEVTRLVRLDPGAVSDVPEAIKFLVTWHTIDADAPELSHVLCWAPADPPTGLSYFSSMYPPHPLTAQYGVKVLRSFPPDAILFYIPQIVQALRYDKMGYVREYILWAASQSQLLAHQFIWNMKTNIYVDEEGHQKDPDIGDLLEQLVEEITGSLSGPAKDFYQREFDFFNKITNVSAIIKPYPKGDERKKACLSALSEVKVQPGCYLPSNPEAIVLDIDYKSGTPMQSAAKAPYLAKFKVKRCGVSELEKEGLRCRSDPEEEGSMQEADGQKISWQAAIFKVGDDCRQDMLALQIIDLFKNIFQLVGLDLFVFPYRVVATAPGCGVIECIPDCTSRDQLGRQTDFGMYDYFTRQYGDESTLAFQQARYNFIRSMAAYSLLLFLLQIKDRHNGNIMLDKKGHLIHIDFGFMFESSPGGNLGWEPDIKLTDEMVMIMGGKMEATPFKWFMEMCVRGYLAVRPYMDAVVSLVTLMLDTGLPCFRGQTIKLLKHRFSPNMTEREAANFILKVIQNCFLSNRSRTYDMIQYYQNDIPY

Compound	Remaining activity
[N-]=[N+]=N[C@@H]1C[C@@H](O)CC(=O)[C@H]1OC(=O)c1ccccc1	80%
COC(=O)/C=C1\C[C@H](O)C[C@@H](OC(=O)c2ccccc2)[C@@H]1OC(=O)c1ccccc1	64%
[N-]=[N+]=N[C@@H]1C[C@@H](O)C/C(=N\O)[C@H]1OC(=O)c1ccccc1	66%
[N-]=[N+]=N[C@@H]1CC=CC(=O)[C@H]1OC(=O)c1ccccc1	5%
CC1(C)OC2C=CC(=O)CC2O1 (centres undefined)	57%
CC1(C)OC2CC(=O)C[C@@H](O)C2O1 (some centres undefined)	80%
[N-]=[N+]=N[C@@H]1C[C@@H](O)CC(=O)[C@H]1OCc1ccccc1	85%
CC(=O)O[C@@H]1C[C@@H](N=[N+]=[N-])[C@H](OC(=O)c2ccccc2)C2(C1)SCCS2	96%
O=C(O[C@@H]1C(=O)C[C@H](O)C[C@H]1OC(=O)c1ccccc1)c1ccccc1	84%
O=C1C[C@H](O)CC=C1OC(=O)c1ccccc1	51%
[N-]=[N+]=N[C@@H]1CC=CC(=O)[C@H]1OCc1ccccc1	85%
[N-]=[N+]=N[C@@H]1C[C@@H](O)CC2(SCCS2)[C@H]1OC(=O)c1ccccc1	96%
CC(=O)O[C@H]1CC(=O)[C@@H](OC(=O)c2ccccc2)[C@H](N=[N+]=[N-])C1	10%
O=C(O[C@@H]1C(=O)C=CC[C@H]1OC(=O)c1ccccc1)c1ccccc1	8%
CC(=O)O[C@@H]1CC(=O)[C@@H](OCc2ccccc2)[C@H](N=[N+]=[N-])C1	82%
CC(=O)O[C@@H]1CC(=O)[C@@H](OC(=O)c2ccccc2)[C@H](OC(=O)c2ccccc2)C1	20%
CC(=O)O[C@@H]1[C@@H](NC(=O)c2ccccc2)[C@@H](O)CC(=O)[C@H]1OC(C)=O	56%
COC(=O)/C=C1\C[C@H](O)C[C@@H](N=[N+]=[N-])[C@@H]1OC(=O)c1ccccc1	63%
COC(=O)/C=C1\C[C@H](O)C[C@@H](N=[N+]=[N-])[C@@H]1OCc1ccccc1	70%
